Test results reported in PubChem BioAssay AID330 (DTP/NCI, 2004).
Values joined by “and” are separate entries in the source; they are usually repeats but may differ in a detail not shown here. Equal entries are not always repeated. Toxic doses and inconclusive results are not listed.

Test system: P388 leukemia ip, CD2F1 mice, survival T/C
Assay: NCI In Vivo Anticancer Drug Screen. Data for tumor model P388 Leukemia (intraperitoneal) in CD2F1 (CDF1) mice
Conditions: endpoint: median survival time, higher = longer survival
Outline: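 Mice carrying the transplanted tumor received test compound or vehicle. Survival was recorded in each group, and the value is the treated-group measurement divided by that of the vehicle-treated control group.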

[1] = dose: 12.5 mg/kg/injection, schedule: Q01DX009 (ip), vehicle: saline with Tween-80
[2] = dose: 25.0 mg/kg/injection, schedule: Q01DX009 (ip), vehicle: saline with Tween-80
[3] = dose: 50.0 mg/kg/injection, schedule: Q01DX009 (ip), vehicle: saline with Tween-80
[4] = dose: 12.5 mg/kg/injection, schedule: Q01DX009 (ip), vehicle: saline
[5] = dose: 25.0 mg/kg/injection, schedule: Q01DX009 (ip), vehicle: saline
[6] = dose: 50.0 mg/kg/injection, schedule: Q01DX005 (ip), vehicle: saline with Tween-80
[7] = dose: 100.0 mg/kg/injection, schedule: Q01DX005 (ip), vehicle: saline with Tween-80
[8] = dose: 50.0 mg/kg/injection, schedule: Q01DX009 (ip), vehicle: Klucel (hydroxypropylcellulose) (HPC)
[9] = dose: 100.0 mg/kg/injection, schedule: Q01DX009 (ip), vehicle: Klucel (hydroxypropylcellulose) (HPC)
[10] = dose: 100.0 mg/kg/injection, schedule: Q04DX003 (ip), vehicle: saline with Tween-80
[11] = dose: 200.0 mg/kg/injection, schedule: Q01DX005 (ip), vehicle: saline with Tween-80
[12] = dose: 100.0 mg/kg/injection, schedule: Q01DX009 (ip), vehicle: saline with Tween-80
[13] = dose: 60.0 mg/kg/injection, schedule: Q01DX005 (ip), vehicle: saline with Tween-80

O=C1CC(SC(=S)C2CCCC2=O)C(=O)O1 (stereo not drawn)
T/C [1]: 109 % of control and 118 % of control | T/C [2]: 109 % of control and 118 % of control | T/C [3]: 118 % of control

c1ccc2c(c1)Sc1ccccc1N2CCCN1CCCC1
T/C [4]: 105 % of control | T/C [5]: 104 % of control | T/C (dose: 25.0 mg/kg/injection, schedule: Q04DX002 (ip), vehicle: saline): 111 % of control | T/C (dose: 50.0 mg/kg/injection, schedule: Q01DX009 (ip), vehicle: saline): 112 % of control and 120 % of control | T/C (dose: 50.0 mg/kg/injection, schedule: Q04DX002 (ip), vehicle: saline): 111 % of control | T/C (dose: 100.0 mg/kg/injection, schedule: Q04DX002 (ip), vehicle: saline): 101 % of control

CCCC(CC)(C(=O)Nc1ccc2nc(C)cc(N)c2c1)C(=O)Nc1ccc2nc(C)cc(N)c2c1
T/C [6]: 91 % of control | T/C [7]: 93 % of control

CC1(c2ccccc2)OC1(C)c1ccccc1 (stereo not drawn)
T/C [8]: 103 % of control | T/C [9]: 103 % of control | T/C (dose: 200.0 mg/kg/injection, schedule: Q01DX009 (ip), vehicle: Klucel (hydroxypropylcellulose) (HPC)): 103 % of control

O=C(Nc1c[nH]c(=O)[nH]c1=O)C(Cl)Cl
T/C (dose: 3.12 mg/kg/injection, schedule: Q01DX009 (ip), vehicle: saline): 93 % of control | T/C (dose: 6.25 mg/kg/injection, schedule: Q01DX009 (ip), vehicle: saline): 97 % of control | T/C [4]: 101 % of control | T/C [5]: 100 % of control

CN1CCc2cc3c(cc2C(=O)Cc2ccc4c(c2C1)OCO4)OCO3
T/C (dose: 25.0 mg/kg/injection, schedule: Q04DX003 (ip), vehicle: saline with Tween-80): 95 % of control | T/C (dose: 50.0 mg/kg/injection, schedule: Q04DX003 (ip), vehicle: saline with Tween-80): 90 % of control | T/C [10]: 90 % of control

CC1CC(=O)c2c(O)ccc(Cl)c21 (stereo not drawn)
T/C (dose: 50.0 mg/kg/injection, schedule: Q01DX005 (ip), vehicle: Klucel (hydroxypropylcellulose) (HPC)): 106 % of control | T/C (dose: 100.0 mg/kg/injection, schedule: Q01DX005 (ip), vehicle: Klucel (hydroxypropylcellulose) (HPC)): 104 % of control | T/C (dose: 200.0 mg/kg/injection, schedule: Q01DX005 (ip), vehicle: Klucel (hydroxypropylcellulose) (HPC)): 100 % of control

C=CC(C)(Cl)C(Cl)/C=C/C(C=O)=C/Cl (stereo not drawn)
T/C (dose: 1.75 mg/kg/injection, schedule: Q01DX009 (ip), vehicle: Klucel (hydroxypropylcellulose) (HPC)): 101 % of control | T/C (dose: 3.5 mg/kg/injection, schedule: Q01DX009 (ip), vehicle: Klucel (hydroxypropylcellulose) (HPC)): 100 % of control | T/C (dose: 7.0 mg/kg/injection, schedule: Q01DX009 (ip), vehicle: Klucel (hydroxypropylcellulose) (HPC)): 101 % of control | T/C (dose: 14.0 mg/kg/injection, schedule: Q01DX009 (ip), vehicle: Klucel (hydroxypropylcellulose) (HPC)): 100 % of control

CCn1c2ccccc2c2cc(N=Nc3cc(N)ccc3N(C)C)ccc21
T/C [6]: 87 % of control | T/C [7]: 87 % of control | T/C [11]: 87 % of control

CCOC(=O)C1=NN2c3ccccc3OCC2C1 (stereo not drawn)
T/C (dose: 50.0 mg/kg/injection, schedule: Q04DX003 (ip), vehicle: suspension in saline): 99 % of control | T/C (dose: 100.0 mg/kg/injection, schedule: Q04DX003 (ip), vehicle: suspension in saline): 101 % of control | T/C (dose: 200.0 mg/kg/injection, schedule: Q04DX003 (ip), vehicle: suspension in saline): 100 % of control

C/C=C\C#C/C=C1/C=CC(=O)O1
T/C (dose: 12.5 mg/kg/injection, schedule: Q01DX009 (ip), vehicle: Klucel (hydroxypropylcellulose) (HPC)): 105 % of control | T/C (dose: 25.0 mg/kg/injection, schedule: Q01DX009 (ip), vehicle: Klucel (hydroxypropylcellulose) (HPC)): 105 % of control | T/C [8]: 108 % of control | T/C [9]: 108 % of control

O=[N+]([O-])c1ccc(SN2CCCCC2)c([N+](=O)[O-])c1
T/C [6]: 100 % of control | T/C [7]: 100 % of control | T/C [11]: 105 % of control

O=C1CC2(CCc3ccccc32)C(=O)N1CN1CCN(CCO)CC1 (stereo not drawn)
T/C (dose: 50.0 mg/kg/injection, schedule: Q01DX005 (ip), vehicle: saline): 106 % of control | T/C (dose: 100.0 mg/kg/injection, schedule: Q01DX005 (ip), vehicle: saline): 110 % of control | T/C (dose: 200.0 mg/kg/injection, schedule: Q01DX005 (ip), vehicle: saline): 115 % of control

CN(C)CCc1ccc2ccc3cccc4ccc1c2c34
T/C [3]: 107 % of control | T/C [12]: 102 % of control | T/C (dose: 200.0 mg/kg/injection, schedule: Q01DX009 (ip), vehicle: saline with Tween-80): 108 % of control

COc1ccc2c(c1OC)C(=O)OC2c1cc(Br)c(O)c(C2OC(=O)c3c2ccc(OC)c3OC)c1 (stereo not drawn)
T/C [3]: 90 % of control | T/C [12]: 86 % of control | T/C (dose: 100.0 mg/kg/injection, schedule: Q04DX003 (ip), vehicle: saline): 87 % of control | T/C (dose: 400.0 mg/kg/injection, schedule: Q04DX003 (ip), vehicle: saline): 87 % of control

Cc1ccc(NS(=O)(=O)c2ccc([N+](=O)[O-])cc2)cc1
T/C [12]: 100 % of control | T/C [10]: 100 % of control | T/C (dose: 200.0 mg/kg/injection, schedule: Q04DX003 (ip), vehicle: saline with Tween-80): 100 % of control | T/C (dose: 400.0 mg/kg/injection, schedule: Q01DX009 (ip), vehicle: saline with Tween-80): 90 % of control | T/C (dose: 400.0 mg/kg/injection, schedule: Q04DX003 (ip), vehicle: saline with Tween-80): 100 % of control

COc1cc2c(c(OC)c1OC)-c1cc3c(cc1C(OC1OC(CO)C(O)C(O)C1O)C1COC(=O)C1C2)OCO3 (stereo not drawn)
T/C (dose: 15.38 mg/kg/injection, schedule: Q01DX005 (ip), vehicle: Klucel (hydroxypropylcellulose) (HPC)): 108 % of control | T/C (dose: 30.75 mg/kg/injection, schedule: Q01DX005 (ip), vehicle: Klucel (hydroxypropylcellulose) (HPC)): 100 % of control | T/C (dose: 61.5 mg/kg/injection, schedule: Q01DX005 (ip), vehicle: Klucel (hydroxypropylcellulose) (HPC)): 113 % of control | T/C (dose: 123.0 mg/kg/injection, schedule: Q01DX005 (ip), vehicle: Klucel (hydroxypropylcellulose) (HPC)): 121 % of control

CCCCOc1ccc(/C=N/NC(=O)CNC(=O)Nc2cccc([N+](=O)[O-])c2)cc1
T/C (dose: 15.0 mg/kg/injection, schedule: Q01DX005 (ip), vehicle: saline with Tween-80): 98 % of control | T/C (dose: 30.0 mg/kg/injection, schedule: Q01DX005 (ip), vehicle: saline with Tween-80): 89 % of control | T/C [13]: 86 % of control and 87 % of control | T/C (dose: 240.0 mg/kg/injection, schedule: Q01DX005 (ip), vehicle: saline with Tween-80): 91 % of control

O=[N+]([O-])c1ccc([I+]c2ccccc2)cc1
T/C [1]: 154 % of control | T/C (dose: 25.0 mg/kg/injection, schedule: Q01DX005 (ip), vehicle: saline with Tween-80): 120 % of control and 124 % of control | T/C [2]: 153 % of control | T/C [3]: 153 % of control | T/C [13]: 98 % of control | T/C [7]: 88 % of control

CC1=CCC(C(C)C2CCC3(C)C4=C(C=C5C=CC(=O)OC(C)(C)C5CC4)CCC23C)OC1=O (stereo not drawn)
T/C (dose: 12.5 mg/kg/injection, schedule: Q01DX005 (ip), vehicle: other): 108 % of control | T/C (dose: 25.0 mg/kg/injection, schedule: Q01DX005 (ip), vehicle: other): 100 % of control | T/C (dose: 50.0 mg/kg/injection, schedule: Q01DX005 (ip), vehicle: other): 93 % of control | T/C (dose: 100.0 mg/kg/injection, schedule: Q01DX005 (ip), vehicle: other): 91 % of control

COP(=O)(O)NS(=O)(=O)c1ccccc1
T/C (dose: 100.0 mg/kg/injection, schedule: Q01DX001 (ip), vehicle: saline): 101 % of control | T/C (dose: 200.0 mg/kg/injection, schedule: Q01DX001 (ip), vehicle: saline): 101 % of control | T/C (dose: 400.0 mg/kg/injection, schedule: Q01DX001 (ip), vehicle: saline): 102 % of control

CC(=O)c1ccc2c(c1)c1c(C)c3c[n+](C)ccc3c(C)c1n2C
T/C (dose: 200.0 mg/kg/injection, schedule: Q01DX001 (ip), vehicle: saline with Tween-80): 115 % of control
